PubChem BioAssay (NCI)
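96-well plates; 48 h exposure; 5 concentrations. Endpoints by linear interpolation between flanking doses. Not reached: highest tested concentration assigned. TGI: total growth inhibition.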

Tests used:
Assay in all cases: DTP human tumour cell line panel, 48 h
[1] = test system: SNB-78 CNS
[2] = test system: SK-MEL-2 melanoma
[3] = test system: MALME-3M melanoma
[4] = test system: LOX IMVI melanoma
[5] = test system: OVCAR-8 ovarian
[6] = test system: DMS 273 small cell lung
[7] = test system: XF 498 CNS
[8] = test system: SF-268 CNS
[9] = test system: DMS 114 small cell lung
[10] = test system: LXFL 529 NSCLC
[11] = test system: SR leukemia
[12] = test system: OVCAR-3 ovarian
[13] = test system: MOLT-4 leukemia
[14] = test system: M19-MEL melanoma
[15] = test system: A549 NSCLC
[16] = test system: HT29 colon
[17] = test system: HOP-18 NSCLC
[18] = test system: SW-620 colon
[19] = test system: CAKI-1 renal
[20] = test system: TK-10 renal
[21] = test system: UACC-62 melanoma
[22] = test system: HOP-92 NSCLC
[23] = test system: UO-31 renal
[24] = test system: CCRF-CEM leukemia
[25] = test system: KM12 colon
[26] = test system: SF-295 CNS
[27] = test system: SK-MEL-5 melanoma
[28] = test system: EKVX NSCLC
[29] = test system: KM20L2 colon
[30] = test system: NCI-H23 lung
[31] = test system: U251 CNS
[32] = test system: SF-539 CNS
[33] = test system: SK-MEL-28 melanoma
[34] = test system: SNB-19 CNS
[35] = test system: IGROV1 ovarian
[36] = test system: HL-60(TB) leukemia
[37] = test system: 786-0 renal
[38] = test system: HCT-15 colon
[39] = test system: NCI-H460 lung
[40] = test system: HCT-116 colon
[41] = test system: M14 melanoma
[42] = test system: HOP-62 NSCLC
[43] = test system: OVCAR-5 ovarian
[44] = test system: NCI-H522 lung
[45] = test system: SK-OV-3 ovarian
[46] = test system: UACC-257 melanoma
[47] = test system: K-562 leukemia
[48] = test system: RPMI-8226 leukemia
[49] = test system: DLD-1 colon
[50] = test system: A498 renal
[51] = test system: NCI-H226 lung
[52] = test system: RXF 393 renal
[53] = test system: SNB-75 CNS
[54] = test system: COLO 205 colon
[55] = test system: OVCAR-4 ovarian
[56] = test system: ACHN renal
[57] = test system: SN12C renal
[58] = test system: HCC-2998 colon
[59] = test system: RXF-631 renal

Measured: TGI

NCCCCC(=O)c1cccnc1
> 100 µM: [1] | [2] | [3] | [4] | [5] | [6] | [7] | [8] | [9] | [10] | [11] | [12] | [13] | [14] | [15] | [16] | [17] | [18] | [19] | [20] | [21] | [22] | [23] | [24] | [25] | [26] | [27] | [28] | [29] | [30] | [31] | [32] | [33] | [34] | [35] | [36] | [37] | [38] | [39] | [40] | [41] | [42] | [43] | [44] | [45] | [46] | [47] | [48] | [49] | [50]

CC1(C)OCC([C@H]2CC23SCCCS3)O1 (stereo partly drawn)
> 100 µM: [1] | [2] | [3] | [5] | [51] | [6] | [7] | [8] | [9] | [10] | [11] | [13] | [15] | [16] | [17] | [19] | [52] | [20] | [21] | [22] | [23] | [25] | [26] | [27] | [28] | [29] | [30] | [31] | [53] | [54] | [32] | [33] | [34] | [35] | [36] | [37] | [38] | [39] | [55] | [40] | [41] | [42] | [43] | [56] | [44] | [45] | [46] | [47] | [48] | [57] | [49] | [50]

O=C(CC1(O)C(=O)Nc2ccccc21)c1ccc(O)cc1 (stereo not drawn)
> 100 µM: [1] | [2] | [3] | [4] | [51] | [6] | [8] | [9] | [10] | [11] | [12] | [13] | [14] | [15] | [16] | [58] | [17] | [18] | [19] | [52] | [20] | [21] | [22] | [23] | [24] | [25] | [26] | [27] | [28] | [29] | [30] | [31] | [53] | [54] | [32] | [33] | [34] | [35] | [36] | [37] | [38] | [39] | [55] | [40] | [41] | [42] | [43] | [59] | [56] | [45] | [46] | [47] | [48] | [57] | [49] | [50]
